Read-outs that look alike come from different tables or passages of the source.
Legend:
[1] = tested on: orchidectomized male Sprague-Dawley rat; assay: In vivo assay, orchidectomized mature male rats (14 days oral); conditions: for exposure (AUC24) at which muscle mass is stimulated above sham equivalent levels: ORX male rats, 14 days PO
Text: The orchidectomized male Sprague-Dawley rat model was used to assess the effects of Compound 102 on various reproductive, gonadotropin and musculoskeletal endpoints, including sex accessory organs, bone, serum gonadotropin levels and striated muscle in mature male rats.
In this assay, two-month old rats were acclimated in a vivarium for one week. After this acclimation period, rats were surgically orchidectomized under isoflurane anesthesia and left untreated for 14 days. After 14 days, animals were sorted into groups such that no statistically significant differences in mean body weights were observed. Rats began receiving treatment 14 days after the day of surgery. Sham-operated and orchidectomized rats, treated with vehicle, served as controls. The different test groups were treated with various doses of Compound 102 (0.03 to 100 mg/kg/day per os (by mouth)). Dosages included 0.03, 0.1, 0.3, 1, 3, 10, 30 and 100 mg/kg/day. Ostarine, a non-steroidal androgenic drug (Evans et al., J Clin Oncology 25: 9119 (2007)) was dosed at dosages similar to other test groups as a comparison. After the 14th dose, venous blood was collected at 0, 1, 2, 4 and 6 hours after dosing. The blood samples were collected in EDTA-containing tubes (Becton Dickinson, Franklin Lakes, N.J.). Approximately 24 hours after the last dose, animals were euthanized and seminal vesicle weights, ventral prostate weights, levator ani weights, preputial gland weights and blood samples were collected on necropsy.
For serum, whole blood (5 mL) was collected in vacutainer tubes (Becton Dickinson) and the blood samples were allowed to clot at room temperature for about 2 hours. Serum was separated by centrifugation at 2500 rpm for 30 minutes, collected and frozen (−80° C.). For plasma, whole blood was collected in EDTA-containing tubes by centrifugation at 1000×g for 5 minutes at 4° C. Plasma samples were stored at −20° C.
For the preparation of all dose formulations, the appropriate amount of test compound (Compound 102) for the highest concentration to be administered was weighed. The compound was suspended in the formulation vehicle (5% Tween®-80 polysorbate, 90% PEG-400 polyethylene glycol and 5% PVP-K30 polyvinylpyrrolidone). The suspension was sonicated for 15 minutes, and the resulting formulation was diluted using vehicle to obtain the proper volume and concentrations of the dosing materials to achieve a dosing volume of 1 mL/kg body weight.
Serum samples were assayed with a double anti-serum procedure using reagents from the National Institute of Diabetes and Digestive and Kidney Diseases (NIDDK). Sample compounds and standards (NIDDK-rLH-RP-3) in a total volume of 200 μL were incubated at room temperature for 2 to 3 days with 100 μL primary anti-serum (rat LH antiserum: rabbit NIDDK-anti-rLH-S-11) diluted 1:100,000. Then, 100 μL of ^125I-labeled LH (Covance Laboratories Madison, Wis.) diluted 200,000-300,000 cpm/mL was added to the tubes and incubation continued for an additional 24 hour period.
Bound hormone was separated from free hormone by precipitation with a specific goat ant-rabbit serum (GARS from Antibodies, Inc., Davis, Calif.). An aliquot of 50 μL of 4% normal rabbit serum was added to each incubation tube, after which an additional 50 μL of a 1:10 GARS solution was added. The tubes were vortexed and incubated overnight at 4° C.
The assay was terminated by centrifugation at 2,500 rpm for 30 minutes in a Sorvall RC 3C Plus centrifuge (rotor #H2000B) at 4° C. The supernatants were decanted and discarded and the pellets were counted in a 10-channel gamma-counter.
Serum osteocalcin, a vitamin K-dependent, calcium binding protein, is a biochemical marker that reflects bone formation activity (Gundberg, J Clin Ligand Assay 21: 128-138 (1998)). Serum osteocalcin was quantitated using an IRMA kit from Immutopics, Inc. (#50-1500, San Clemente, Calif.). […] The test uses two different antibodies to measure the serum osteocalcin. […]

[2] = Pharmacokinetics in ovariectomized female rats (plasma, Day 14); type: in vivo, rat; conditions: OVX female rats; for AUC: female, po; for AUC / Cmax / Tmax: rat, plasma, PO
Protocol: After the 14th dose, approximately 250 μL venous blood was collected via percutaneous jugular puncture from the rats at 0, 0.5, 1, 2, 4 and 6 hours post-dosing. The blood samples were collected into lithium-heparin tubes (Becton Dickinson, Franklin Lakes, N.J.). Plasma fractions were collected for pharmacokinetic analysis. Approximately 24 hours after the last dose, rats were sacrificed by cardiac exsanguination, and blood was collected into serum separator tubes (Becton Dickinson), and the gastrocnemius muscle, plantaris muscle, uterus, clitoral glands, clitoris and inguinal fat pads were isolated, blotted and weighed individually. Uterine weight measurements can be inaccurate in surgically ovariectomized rats due to the potential loss of uterine tissue at the tips of the uterine horns during removal of the ovaries. To minimize this variability, the length of the uterine horns was measured and the uterine weight was reported normalized to uterine length. The left femur and lumbar vertebra L5 were wrapped in saline-soaked gauze and stored at −20° C. for biochemical analysis. The right femur and lumbar vertebrae L3-L4 were collected and stored in 70% ethanol for histomorphometry. The right tibia was collected in formalin for histological analysis. The left tibia was collected on dry ice and stored at −20° C. for measurement of alkaline phosphatase activity.
Pharmacokinetic analysis was performed as described in Example 13.

[3] = 0.03 mg/kg, Day 14, 0.03 mg/kg, mean ± SD of n = 4, read-out: AUC6
[4] = 0.03 mg/kg, Day 14, 0.03 mg/kg, n = 4, 0 hr conc. substituted for 24 hr, read-out: AUC24
[5] = 0.3 mg/kg, Day 14, 0.3 mg/kg, mean ± SD of n = 4, read-out: AUC6
[6] = 0.3 mg/kg, Day 14, 0.3 mg/kg, n = 4, 0 hr conc. substituted for 24 hr, read-out: AUC24
[7] = 3 mg/kg, Day 14, 3 mg/kg, mean ± SD of n = 4, read-out: AUC6
[8] = 3 mg/kg, Day 14, 3 mg/kg, n = 4, 0 hr conc. substituted for 24 hr, read-out: AUC24
[9] = Day 14, 0.03 mg/kg, mean ± SD of n = 4
[10] = Day 14, 0.3 mg/kg, mean ± SD of n = 4
[11] = Day 14, 3 mg/kg, mean ± SD of n = 4

| Compound | preputial gland weight ([1]; 30 mg/kg/day, statistically significant) | ventral prostate or seminal vesicles, % of sham levels ([1]; 100 mg/kg/day PO (highest dose)) | exposure (AUC24) at which muscle mass is stimulated above sham equivalent levels [1] | preputial gland weight ([1]; all doses less than 10 mg/kg/day PO) | ventral prostate, % of sham equivalent levels ([1]; exposures of 1 μg·/mL or greater) | AUC [2, 3] [ng·h/mL] | AUC [2, 4] [ng·h/mL] | AUC [2, 5] [ng·h/mL] | AUC [2, 6] [ng·h/mL] | AUC [2, 7] [ng·h/mL] | AUC [2, 8] [ng·h/mL] | Cmax [2, 9] [ng/mL] | Tmax [2, 9] [min] | Cmax [2, 10] [ng/mL] | Tmax [2, 10] [min] | Cmax [2, 11] [ng/mL] | Tmax [2, 11] [min] | restoration of ventral prostate to sham equivalents ([1]; any dose) | systemic exposure compared with Compound 102 ([2]; equal doses) |
| --- | --- | --- | --- | --- | --- | --- | --- | --- | --- | --- | --- | --- | --- | --- | --- | --- | --- | --- | --- |
| N#Cc1ccc(N2CCC[C@@H]2[C@@H](O)C(F)(F)F)cc1C(F)(F)F [Compound 102, R,R-4-(2-(1-Hydroxyl-2,2,2-trifluoroethyl)-pyrrolidinyl)-2-trifluoromethyl-benzonitrile] | increased preputial gland weight above the sham level | approximately 50% | ≥ 1 µg·h/mL | remained below vehicle equivalent levels | less than 50% | 56 ± 56 | 119 ± 90 | 51 ± 41 | 229 ± 289 | 404 ± 199 | 880 ± 326 | 39 ± 28 | 210 ± 114 | 40 ± 34 | 30 ± 24 | 207 ± 87 | 30 |  |  |
| C[C@](O)(COc1ccc(C#N)cc1)C(=O)Nc1ccc(C#N)c(C(F)(F)F)c1 [ostarine] |  |  | greater than 10 μg·/mL |  |  | 125 ± 22 | 552 ± 118 | 1080 ± 105 | 4140 ± 448 | 5040 ± 1300 | 20600 ± 3650 | 35 ± 7 | 156 ± 144 | 332 ± 40 | 36 ± 12 | 1480 ± 429 | 66 ± 36 | did not restore ventral prostate to sham equivalents at any dose | significantly higher exposure |

Reference: patent publication US11358931B2, “Selective androgen receptor modulators (SARMs) and uses thereof” (priority 2007, dated 2022)
